Data on 13 compounds can be found in ChEMBL document CHEMBL5230089, “Small-Molecule Fms-like Tyrosine Kinase 3 Inhibitors: An Attractive and Efficient Method for the Treatment of Acute Myeloid Leukemia” (J Med Chem, 2020).

The structures appear in SMILES notation.

The subject of assay [1] is MOLM-14. The experiment in a line: cells. To be noted: Homo sapiens, MOLM-14, 72 h.
For assay [2], the target named is T1, Receptor-type tyrosine-protein kinase FLT3 (Homo sapiens, UniProt P36888, ITD).
The test system of assay [3] is MV4-11. The experiment in a line: cells. The following applies: Homo sapiens, MV4-11, 48 h.
Description: Antiproliferative activity against human MV4-11 cells assessed as reduction in cell viability after 48 hrs by Alamar Blue assay
Assay [4] concerns 697. Kind of assay: Cytotoxicity activity against human 697 cells assessed as reduction cell viability at 50 uM incubated for 48 hrs by ATP-glo assay. It counts as functional, cell-based. To be noted: Homo sapiens, 697, 48 h.
Assay [5] relates to MOLM-14. Kind of assay: Cytotoxicity against human MOLM-14 cells assessed as reduction in cell viability incubated for 72 hrs. The following applies: MOLM-14, 72 h. Type of assay: functional, cell-based.
Assay [6] deals with BaF3. Kind of assay: cells. The following applies: Mus musculus, BaF3, 72 h.
Assay [7] has as its system BaF3. Kind of assay: cells. The following applies: Mus musculus, BaF3, 72 h. This is another data set of the same source.
For assay [8], the system named is Receptor-type tyrosine-protein kinase FLT3 (Homo sapiens), P36888 [UNDEFINED MUTATION].
For assay [9], the system named is MOLM-14. The experiment in a line: Antiproliferative activity against human MOLM-14 cells assessed as cell growth inhibition measured after 72 hrs by cell titer-Blue assay. Type of assay: functional, cell-based. The following applies: MOLM-14, 72 h.
Assay [10] concerns MV4-11. The experiment in a line: Antiproliferative activity against human MV4-11 cells assessed as cell growth inhibition measured after 72 hrs by cell titer-Blue assay. Type of assay: functional, cell-based. The following applies: MV4-11, 72 h.
Assay [11] deals with Receptor-type tyrosine-protein kinase FLT3 (Homo sapiens, UniProt P36888, D835Y). Kind of assay: Inhibition of FLT3-D835Y mutant phosphorylation in human MOLM-14 cell incubated for 2 hrs. Type of assay: cell-based.
Assay [12] concerns the target T1, Receptor-type tyrosine-protein kinase FLT3. Kind of assay: Inhibition of FLT3-ITD mutant phosphorylation in human MOLM-14 cell incubated for 2 hrs. Type of assay: cell-based.
The subject of assay [13] is MV4-11. The experiment in a line: Growth inhibition of human MV4-11 cells assessed as reduction in cell viability at 50 uM measured after 72 hrs by CCK8 assay. It counts as functional.
In assay [14] the target is T2, Receptor-type tyrosine-protein kinase FLT3 (Homo sapiens, UniProt P36888).
T2 sequence (P36888 whole entry): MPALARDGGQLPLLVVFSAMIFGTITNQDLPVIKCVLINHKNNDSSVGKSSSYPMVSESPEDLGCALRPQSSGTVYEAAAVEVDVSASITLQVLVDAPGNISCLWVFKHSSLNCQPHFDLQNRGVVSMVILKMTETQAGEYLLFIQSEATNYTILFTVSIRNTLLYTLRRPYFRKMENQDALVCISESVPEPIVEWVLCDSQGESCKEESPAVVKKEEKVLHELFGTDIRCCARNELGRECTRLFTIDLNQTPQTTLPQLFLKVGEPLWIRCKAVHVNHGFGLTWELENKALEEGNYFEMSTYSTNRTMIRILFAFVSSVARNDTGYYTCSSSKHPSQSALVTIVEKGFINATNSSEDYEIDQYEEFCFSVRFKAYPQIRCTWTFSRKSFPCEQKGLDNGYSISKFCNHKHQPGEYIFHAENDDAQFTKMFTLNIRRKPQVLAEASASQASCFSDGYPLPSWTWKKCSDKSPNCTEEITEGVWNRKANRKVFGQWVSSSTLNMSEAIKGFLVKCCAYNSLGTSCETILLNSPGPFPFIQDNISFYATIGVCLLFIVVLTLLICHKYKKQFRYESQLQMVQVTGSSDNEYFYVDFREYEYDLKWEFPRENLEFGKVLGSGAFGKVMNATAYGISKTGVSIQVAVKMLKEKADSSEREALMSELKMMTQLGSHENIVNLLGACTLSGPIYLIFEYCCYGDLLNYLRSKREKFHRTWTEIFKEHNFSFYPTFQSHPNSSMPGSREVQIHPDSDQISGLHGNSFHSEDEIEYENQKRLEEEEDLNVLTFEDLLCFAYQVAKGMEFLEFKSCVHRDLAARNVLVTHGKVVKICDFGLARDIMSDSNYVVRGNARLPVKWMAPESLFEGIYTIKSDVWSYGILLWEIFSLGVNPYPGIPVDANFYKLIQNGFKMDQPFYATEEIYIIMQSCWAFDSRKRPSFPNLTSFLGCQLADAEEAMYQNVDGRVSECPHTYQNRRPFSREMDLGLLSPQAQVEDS
The experiment in a line: Inhibition of FLT3 (unknown origin).

The subject of assay [15] is RS4-11. Kind of assay: Growth inhibition human RS4-11 cell assessed as reduction in cell viability at 50 uM measured after 72 hrs by CCK8 assay. It counts as functional.
Assay [16] has as its system MOLM-13. The experiment in a line: cells. The following applies: Homo sapiens, MOLM-13, 72 h.
Description: Cytotoxicity against human MOLM-13 cells assessed as reduction in cell viability incubated for 72 hrs
In assay [17] the test system is MOLM-13. Kind of assay: Growth inhibition of human MOLM-13 cells incubated for 72 hrs by CCK-8 assay. It counts as functional. In general terms: Tetrazolium dyes change colour on reduction, which living cells bring about.
Assay [18] relates to MV4-11. The experiment in a line: Growth inhibition of human MV4-11 cells incubated for 72 hrs by CCK-8 assay. It counts as functional.
Assay [19] deals with MOLM-14. Kind of assay: Growth inhibition of human MOLM-14 cells incubated for 72 hrs by CCK-8 assay. It counts as functional.
Assay [20] has as its system MV4-11. The experiment in a line: Antiproliferative activity against human MV4-11 cells assessed as reduction in cell proliferation measured after 24 hrs by MTT assay. To be noted: MV4-11, 24 h. It counts as functional, cell-based.
The target in assay [21] is T2, Receptor-type tyrosine-protein kinase FLT3. Kind of assay: Inhibition of FLT3 (unknown origin) autophosphorylation expressed in human Leukemia cells. Type of assay: cell-based, Leukemia cell.
The subject of assay [22] is BaF3. Kind of assay: cells. The following applies: Mus musculus, BaF3, 72 h. This is another data set of the same source.
The test system of assay [23] is MOLM-13. The experiment in a line: cells. The following applies: Homo sapiens, MOLM-13, 72 h. This is another data set of the same source.
Assay [24] has as its system HL-60. Kind of assay: Growth inhibition of human HL-60 cells incubated for 4 days by WST assay. Type of assay: functional. The following applies: HL-60, 96 h, time 4 day.
Assay [25] is described as follows: cells. The following applies: Homo sapiens, TF cell, 72 h.
For assay [26], the system named is BaF3. The experiment in a line: Antiproliferative activity against mouse BaF3 FLT3-D835 cells assessed as reduction in cell viability measured after 72 hrs by MTS assay. It counts as functional, cell-based. The following applies: BaF3, 72 h.

For orientation: IC50 means the concentration needed to halve the response being measured. Consider `Cc1ccc(C(=O)Nc2ccc(CN3CCN(C)CC3)c(C(F)(F)F)c2)cc1C#Cc1c(N)ncc2ccc(Cl)cc12`, for which the IC50 turned out to be 0.72 nM in [1], 6.5 nM in assay [2] and 0.49 nM in [3].
For the compound `CCCCNc1ncc2c(-c3ccc(CN4CCN(C)CC4)cc3)cn([C@H]3CC[C@H](O)CC3)c2n1`, the IC50 in assay [4] was found to be 2.7 nM; in assay [5] it was 14 nM.
Take `CN1CCC(Nc2nc(Nc3ccc(Oc4ccccc4)cc3)c3c(=O)[nH]cc(Br)c3n2)CC1` [DENFIVONTINIB]: the IC50 turned out to be 21.4 nM in assay [6], 7.5 nM in assay [1], 3.5 nM in assay [3] and 38.1 nM in assay [7].
In assay [8], `Cc1cc2ncc(-c3ccccc3)nc2cc1C` [AG1295] displayed an IC5 of 32 nM. In [3], this compound returned an IC50 of 2200 nM.
For `Cc1ncc(C(=O)Nc2ccc(CN3CCN(C)CC3)c(C(F)(F)F)c2)cc1C#Cc1c(N)ncc2ccc(F)cc12`, the IC50 in [9] amounted to 0.5 nM; in assay [10] it was 0.5 nM; in [11] it was 16.6 nM; in [12] it was 0.5 nM.
The GI50 is the concentration that inhibits growth by half. Consider `O=C(c1ccncc1)N1CCc2nc(-c3cc4cc(F)ccc4[nH]c3=O)[nH]c2C1`, for which the GI50 turned out to be 110 nM in [13] and 6300 nM in [15]. This compound also returned an IC50 in assay [14] of 2.7 nM.
Turning to `Cc1[nH]c(/C=C2\C(=O)Nc3ccc(F)cc32)c(C)c1NC(=O)[C@@H]1CCCN1`, the IC50 in assay [16] came to 23.6 nM; in [2] it was 5.3 nM; in [3] it was 24.8 nM.
For `CCCNc1nc(Nc2ccc(C#N)cc2)ncc1C#CCCCNC(=O)[C@H](C)N(C)C(=O)/C=C/CN(C)C` [FF-10101], the GI50 stood at 1.1 nM in assay [17], 0.83 nM in assay [18] and 1.5 nM in assay [19].
With `CN(C)CC(=O)N1CCC[C@@H](n2nc(-c3ccc(Oc4ccccc4)cc3)c3c(N)ncnc32)C1`, the concentration for 50% growth inhibition (GI50) in [17] turned out to be 21 nM; in [18], 22 nM; in assay [19] it was 42 nM.
As to `CNC(=O)[C@@]1(N)C[C@H]2O[C@]1(C)n1c3ccccc3c3c4c(c5c6ccccc6n2c5c31)C(=O)NC4`, the IC50 was less than 0.25 nM in assay [20] and 0.1 nM in assay [21].
Turning to `COc1cc2c(N3CCN(C(=O)Nc4ccc(OC(C)C)cc4)CC3)ncnc2cc1OCCCN1CCCCC1` [TANDUTINIB], the IC50 in assay [1], in assay [22] and in assay [23] was 10 nM in each case.
Regarding `CNCCOc1ccc(-c2sc3nc(-c4cccs4)nc(NN4C(=O)C=C(C)C4=O)c3c2C)cc1`, the values for the GI50 in assay [18] and in assay [24] were 540 nM and 250 nM, respectively.
Take `CCc1nc(C(N)=O)c(Nc2ccc(N3CCC(N4CCN(C)CC4)CC3)c(OC)c2)nc1NC1CCOCC1` [GILTERITINIB]: the IC50 in assay [1] is 1.8 nM; in assay [25] it was 1.4 nM; in assay [26], 0.7 nM.
